According to patent US9241991B2, “Agents, compositions, and methods for treating pruritus and related skin conditions” (The Brigham and Women's Hospital, Inc., priority 2010, dated 2016):

Legend:
TRPV1 [1] = target: T1, TRPV1 (Mus musculus, UniProt Q704Y3); test: Behavior after intrathecal injection of capsaicin; format: in vivo; details: WT mice
TRPV1 [2] = target: T1, TRPV1; test: Patch clamp recording of sEPSCs in lamina II neurons of spinal cord slices, capsaicin; format: cell-based; design: central terminals of TRPV1-expressing nociceptors; from tissue; host or cells: mouse lumbar spinal cord slices (L4-L5); live mice (intrathecal capsaicin, resiniferatoxin pretreatment); details: capsaicin 1 μM, WT mice spinal cord slices
DRG neurons = test: Calcium imaging from cultured DRG neurons; format: cell-based; details: wild-type mice DRG neurons
Method: DRGs from all spinal levels of 4-week old mice were collected in cold DH10 (90% DMEM/F-12, 10% FBS, 100 U/ml penicillin, and 100 μg/ml Streptomycin, Gibco) and treated with enzyme solution (5 mg/ml Dispase, 1 mg/ml Collagenase Type I in HPBS without Ca^++ and Mg^++, Gibco) at 37° C. Following trituration and centrifugation, cells were resuspended in DH10, plated on glass cover slips coated with poly-D-lysine (0.5 mg/ml, Stoughton, Mass.) and laminin (10 μg/ml, Invitrogen), cultured in an incubator ([…] and 5% CO2) at 37° C. and used within 24 hours. Neurons were loaded with Fura 2-acetomethoxy ester (Molecular Probes) for 30 min in the dark at room temperature. After washing, cells were imaged at 340 and 380 nm excitation to detect intracellular free calcium. To compare the response to histamine, chloroquine, and capsaicin between WT and Tlr3-deficient DRG neurons, calcium imaging assays were performed with an experimenter blind to genotype (n=3 per genotype), and the percentages of DRG neurons showing calcium responses were determined as we previously described (23).

TLR3 [3] = target: T2, TLR3 (Mus musculus, UniProt Q99MB1); test: Patch-clamp recording of PIC-induced inward currents in dissociated DRG neurons; format: cell-based, mice; design: from tissue; host or cells: mouse DRG (dissociated small neurons), lumbar spinal cord slices, neck skin of live mice
T2 sequence (Q99MB1 26-905): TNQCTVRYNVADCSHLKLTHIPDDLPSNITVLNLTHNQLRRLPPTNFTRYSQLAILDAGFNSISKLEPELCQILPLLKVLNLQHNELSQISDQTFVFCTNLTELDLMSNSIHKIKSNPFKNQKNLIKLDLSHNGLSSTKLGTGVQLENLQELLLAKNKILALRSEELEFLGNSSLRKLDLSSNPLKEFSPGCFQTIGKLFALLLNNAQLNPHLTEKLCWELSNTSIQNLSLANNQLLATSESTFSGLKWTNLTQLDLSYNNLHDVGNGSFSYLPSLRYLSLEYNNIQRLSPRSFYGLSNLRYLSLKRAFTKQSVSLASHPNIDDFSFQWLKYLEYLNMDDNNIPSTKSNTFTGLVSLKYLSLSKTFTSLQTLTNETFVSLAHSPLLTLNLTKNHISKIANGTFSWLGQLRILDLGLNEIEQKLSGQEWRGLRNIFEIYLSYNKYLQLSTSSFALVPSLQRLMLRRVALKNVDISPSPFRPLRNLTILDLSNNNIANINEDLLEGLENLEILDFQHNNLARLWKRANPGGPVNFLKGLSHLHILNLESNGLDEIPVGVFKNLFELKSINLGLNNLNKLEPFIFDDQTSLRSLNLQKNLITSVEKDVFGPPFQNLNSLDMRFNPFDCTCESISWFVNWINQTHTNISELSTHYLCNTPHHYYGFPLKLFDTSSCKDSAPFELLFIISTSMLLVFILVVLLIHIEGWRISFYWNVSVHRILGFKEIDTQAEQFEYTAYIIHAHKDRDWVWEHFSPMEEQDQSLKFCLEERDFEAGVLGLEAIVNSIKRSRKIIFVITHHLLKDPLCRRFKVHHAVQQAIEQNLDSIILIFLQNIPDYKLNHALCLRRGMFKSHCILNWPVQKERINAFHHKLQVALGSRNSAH
Method: DRGs were removed aseptically from 4-week old mice and first incubated with collagenase (1.25 mg/ml, Roche)/dispase-II (2.4 units/ml, Roche) at 37° C. for 90 min, then digested with 0.25% trypsin (Cellgro) for 8 min at 37° C., followed by 0.25% trypsin inhibitor (Sigma). Cells were then mechanically dissociated with a flame polished Pasteur pipette in the presence of 0.05% DNAse I (Sigma). DRG cells were plated onto poly-D-lysine and laminin-coated slide chambers (for immunocytochemistry) or glass cover slips (for electrophysiology) and grown in a neurobasal defined medium (with 2% B27 supplement, Invitrogen) in the presence of 5 μM AraC, at 36.5° C., with 5% carbon dioxide.
Single-cell RT-PCR was performed as previously described (6). DRG cultures were prepared as above described and grown on glass cover slips coated with poly-D-lysine and laminin. Whole-cell patch clamp recordings were performed at room temperature to measure currents in dissociated DRG neurons with small-sizes using Axopatch-200B amplifier (Axon Instruments, Union City, USA). The patch pipettes were pulled from borosilicate capillaries (Chase Scientific Glass Inc., Rockwood, Calif., USA). When filled with the pipette solution, the resistance of the pipettes was 4˜5 MΩ. The recording chamber (volume 300 μl) was continuously superfused (3-4 ml/min). Series resistance was compensated for (>80%), and leak subtraction was performed. Data were low-pass-filtered at 2 KHz, sampled at 10 KHz. The pClamp8 (Axon Instruments) software was used during experiments and analysis. The pipette solution was composed of (in mM): 126 K-gluconate, 10 NaCl, 1 MgCl2, 10 EGTA, 2 NaATP, 0.1 MgGTP, pH 7.3 with KOH, 295-300 mOsm. Extracellular solution contained (in mM): 140 NaCl, 5 KCl, 2 CaCl2, 1 MgCl2, 10 HEPES, 10 glucose adjusted to pH 7.4 with NaOH, osmolarity 310 mOsm. Inward currents were recorded at a holding potential of −60 mV. In some experiments, following parch-clamp recording, the recorded DRG neurons were collected for single-cell RT-PCR analysis.

TLR3 [4] = target: T2, TLR3; test: Scratching after intradermal PIC in naive mice and after AEW dry skin treatment; format: in vivo; design: from tissue; host or cells: mouse DRG (dissociated small neurons), lumbar spinal cord slices, neck skin of live mice
Method: Mice were habituated to the testing environment daily for at least two days before analysis. <ice were shaved at the back of the neck the day before injection. We put mice in small plastic chambers (14×18×12 cm) on an elevated metal mesh floor and allowed 30 min for habituation before examination. We injected 50 μl of pruritic agent intradermally in the nape of the neck and counted the number of scratches every 5 min for 30 min after the injection. A scratch was counted when a mouse lifted its hindpaw to scratch the shaved region and returned the paw to the floor or to the mouth for licking. On the basis of previous reports (4; 5) and our preliminary studies (6), we chose the following doses for pruritic agents: 25 ng for ET-1, 20 μg for 5-HT, 100 μg for HTMT, compound 48/80, and SLIGRL-NH2, 200 μg for chloroquine, 300 μg for trypsin, and 500 μg for histamine and 4-MeHA. We also injected diluted formalin (0.6%, 50 μl) in the nape to induce scratching behaviors. The experimenters were blinded to the genotypes of the animals. We also produced a dry skin model for chronic itch as described in detail previously (7), by painting neck skin with acetone and diethyether (1:1) following by water (AEW) twice a day for 7 days, and examined spontaneous itch by counting the number of scratches for 60 minutes on day 8 and 9.

TLR3 [5] = target: T2, TLR3; test: Patch clamp recording of sEPSCs in lamina II neurons of spinal cord slices, PIC; format: cell-based; design: from tissue; host or cells: mouse DRG (dissociated small neurons), lumbar spinal cord slices, neck skin of live mice; details: PIC 100 ng/ml, slices of WT but not Tlr3-/- mice; P<0.05
Method: As we previously reported (18), a portion of the lumbar spinal cord (L4-L5) was removed from mice (4-6 week old) under urethane anesthesia (1.5-2.0 g/kg, i.p.) and kept in pre-oxygenated ice-cold Krebs solution. Transverse slices (600 μm) were cut on a vibrating microslicer. The slices were perfused with Kreb's solution (8-10 ml/min) that was saturated with 95% O2 and 5% CO2 at 36±1° C. for at least 1-3 hours prior to experiment. The Kreb's solution contains (in mM): NaCl 117, KCl 3.6, CaCl2 2.5, MgCl2 1.2, NaH2PO4 1.2, NaHCO3 25, and glucose 11.
The whole cell patch-clamp recordings were made from lamina IIo neurons in voltage clamp mode. Patch pipettes were fabricated from thin-walled, borosilicate, glass-capillary tubing (1.5 mm o.d., World Precision Instruments). After establishing the whole-cell configuration, neurons were held at the potential of −70 mV to record sEPSCs. The resistance of a typical patch pipette is 5-10 M. The internal solution contains (in mM): potassium gluconate 135, KCl 5, CaCl2 0.5, MgCl2 2, EGTA 5, HEPES 5, ATP-Mg 5. Membrane currents were amplified with an Axopatch 200B amplifier (Axon Instruments) in voltage-clamp mode. Signals were filtered at 2 kHz and digitized at 5 kHz. Data were stored with a personal computer using pCLAMP 10 software and analyzed with Mini Analysis (Synaptosoft Inc.).

TLR3 [6] = test: Compound 48/80- and chloroquine-induced scratching after intrathecal TLR3 AS-ODNs; format: in vivo; details: intrathecal AS-ODNs 10 μg daily for 5 days, adult mice; P<0.05
Method: (§1) We injected pruritic agents intradermally in the nape of the neck (50 μl) or cheek (10 μl), respectively. We purchased histamine, compound 48/80, trypsin, chloroquine, serotonin, TLR3 agonist polyribo-inosinic/cytidylic acid (PIC), and complete Freund's adjuvant (CFA) from Sigma-Aldrich, histamine H1 receptor agonist histamine-trifluoromethyl-toluidine (HTMT), capsaicin, and the H4R-selective agonist 4-methylhistamine (4-MeHA) from Tocris, and endothelin-1 (ET-1) from ALEXIS Biochemicals. […] Antisense oligodeoxynucleotides (AS-ODN; 5′-[…]-3′; SEQ ID NO:1) targeting TLR3 and mismatch ODN (MM-ODN; 5′-[…]-3′; SEQ ID NO:2) were synthesized by Invitrogen according to the published sequences (2). AS-ODN (10 μg) or MM-ODN were intrathecally injected once a day for 5 days. To target DRG and spinal cord cells, TRIF inhibitor (10 μl) were delivered intrathecally into cerebral spinal fluid via a lumbar puncture. […]
Mice were habituated to the testing environment daily for at least two days before analysis. <ice were shaved at the back of the neck the day before injection. […] We injected 50 μl of pruritic agent intradermally in the nape of the neck and counted the number of scratches every 5 min for 30 min after the injection. A scratch was counted when a mouse lifted its hindpaw to scratch the shaved region and returned the paw to the floor or to the mouth for licking. […]

TLR3 [7] = test: TLR3 protein and mRNA levels in DRGs after intrathecal TLR3 antisense ODNs (Western blotting, quantitative PCR); format: in vivo; details: intrathecal AS-ODNs 10 μg daily for 5 days, adult WT mice; P<0.05
Method: as §1
Mice were terminally anesthetized with isoflurane and transcardially perfused with PBS, and the DRGs were rapidly removed and homogenized in a lysis buffer containing a cocktail of protease inhibitors and phosphatase inhibitors. The protein concentrations were determined by BCA Protein Assay (Pierce), and 30 μg of proteins were loaded for each lane and separated on SDS-PAGE gel (4-15%, Bio-Rad). […]

TLR4 = TLR4 expression in the DRG after intrathecal AS-ODNs (specificity); format: in vivo, mice
Method: We injected pruritic agents intradermally in the nape of the neck (50 μl) or cheek (10 μl), respectively. We purchased histamine, compound 48/80, trypsin, chloroquine, serotonin, TLR3 agonist polyribo-inosinic/cytidylic acid (PIC), and complete Freund's adjuvant (CFA) from Sigma-Aldrich, histamine H1 receptor agonist histamine-trifluoromethyl-toluidine (HTMT), capsaicin, and the H4R-selective agonist 4-methylhistamine (4-MeHA) from Tocris, and endothelin-1 (ET-1) from ALEXIS Biochemicals. […] Antisense oligodeoxynucleotides (AS-ODN; 5′-[…]-3′; SEQ ID NO:1) targeting TLR3 and mismatch ODN (MM-ODN; 5′-[…]-3′; SEQ ID NO:2) were synthesized by Invitrogen according to the published sequences (2). AS-ODN (10 μg) or MM-ODN were intrathecally injected once a day for 5 days. To target DRG and spinal cord cells, TRIF inhibitor (10 μl) were delivered intrathecally into cerebral spinal fluid via a lumbar puncture. A successful spinal puncture was evidenced by a brisk tail-flick after the needle entry into subarachnoid space (3). Most reagents were dissolved in sterile saline. Capsaicin was dissolved in 10% DMSO.
We collected back hairy skin and cervical DRGs from 4 pairs of WT and Tlr3^−/− mice and isolated total RNAs using RNeasy Plus Mini kit (Qiagen, Valencia, Calif.). […]

T1 sequence (Q704Y3 whole entry): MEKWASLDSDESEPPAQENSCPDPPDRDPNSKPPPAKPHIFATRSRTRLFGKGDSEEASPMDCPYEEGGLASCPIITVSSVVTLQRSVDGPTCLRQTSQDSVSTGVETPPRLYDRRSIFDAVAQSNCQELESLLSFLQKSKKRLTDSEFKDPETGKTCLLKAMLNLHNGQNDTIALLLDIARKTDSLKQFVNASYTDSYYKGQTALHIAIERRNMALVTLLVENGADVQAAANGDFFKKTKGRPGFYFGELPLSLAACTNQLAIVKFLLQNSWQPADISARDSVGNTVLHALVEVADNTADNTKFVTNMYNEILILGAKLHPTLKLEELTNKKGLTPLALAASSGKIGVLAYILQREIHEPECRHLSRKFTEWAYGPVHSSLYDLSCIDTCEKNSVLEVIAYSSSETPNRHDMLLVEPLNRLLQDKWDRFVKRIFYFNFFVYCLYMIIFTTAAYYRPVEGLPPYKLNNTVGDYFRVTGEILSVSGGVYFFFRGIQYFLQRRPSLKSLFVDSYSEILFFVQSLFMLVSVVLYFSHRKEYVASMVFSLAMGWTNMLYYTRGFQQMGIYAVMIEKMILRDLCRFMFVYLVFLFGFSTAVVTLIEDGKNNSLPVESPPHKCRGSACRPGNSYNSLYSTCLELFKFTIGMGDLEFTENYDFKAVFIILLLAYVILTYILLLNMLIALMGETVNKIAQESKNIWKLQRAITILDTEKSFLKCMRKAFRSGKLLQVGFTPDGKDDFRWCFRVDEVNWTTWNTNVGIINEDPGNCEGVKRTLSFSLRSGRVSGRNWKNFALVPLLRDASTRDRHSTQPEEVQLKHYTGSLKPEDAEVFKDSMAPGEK

COc1cc(CNC(=O)CCCC/C=C/C(C)C)ccc1O [capsaicin]
behavior after intrathecal injection (TRPV1 [1]): induced biting, licking and scratching behavior
sEPSC frequency in lamina II neurons (TRPV1 [2]): dramatic increase
neurons with intracellular Ca2+ increases (DRG neurons): 39%

polyribo-inosinic/cytidylic acid [PIC]
neurons that respond to PIC (TLR3 [3]; PIC 200 ng/ml, small DRG neurons, all also express TLR3 mRNA): four neurons (out of ten)
inward currents in DRG neurons from Tlr3-/- mice (TLR3 [3]; Tlr3-/- mice): failed to induce inward currents
neurons in which an inward current was elicited (TLR3 [3]; dissociated DRG neurons, WT, PIC 100-1000 ng/ml, 5 out of 8): 60%
scratching responses in naive mice (TLR3 [4]; intradermal PIC 0.1-100 μg): failed to induce obvious scratching responses
spontaneous scratching after AEW treatment (TLR3 [4]; intradermal PIC, TLR3-dependent, P<0.05): able to potentiate
sEPSC frequency (TLR3 [5]): increased

AS-ODNs: Antisense oligodeoxynucleotides 5′-AACAATTGCTTCAAGTCC-3′ (SEQ ID NO:1) targeting TLR3, synthesized by Invitrogen (DNA, backbone not given here)
chloroquine-induced scratching (TLR3 [6]): significantly inhibited
compound 48/80-induced scratching (TLR3 [6]): significantly inhibited
TLR3 protein and mRNA levels in DRGs (TLR3 [7]): partial knockdown
TLR4 expression in the DRG (TLR4): did not affect
